{"source": "patent US10702498B2", "about": "(priority 2015, dated 2020)", "key": {"mice [1]": {"test_system": "mice", "assay": "Open field locomotor response", "settings": "mouse"}, "C57BL/6J mice [2]": {"test_system": "C57BL/6J mice", "assay": "Tail-flick assay", "format": "in vivo", "settings": "mouse"}, "[3]": {"assay": "Pharmacokinetics: serum and brain concentrations", "format": "in vivo", "settings": "mouse", "experimental": "Studies were performed by the Preclinical Therapeutics Core and the Drug Studies Unit at the University of California San Francisco. […] All studies were performed with approved mouse protocols from the institutional animal care and use committees."}, "nociceptin receptor": {"target": "nociceptin receptor (Homo sapiens (Human), UniProt P41146)", "assay": "Gi/o Glosensor assay"}, "mice [4]": {"test_system": "mice", "assay": "Accumulated fecal boli quantification (constipation)", "settings": "mouse"}, "μOR [5]": {"target": "T1, μOR (Homo sapiens (Human), UniProt P35372)", "T1 sequence (P35372 whole entry)": "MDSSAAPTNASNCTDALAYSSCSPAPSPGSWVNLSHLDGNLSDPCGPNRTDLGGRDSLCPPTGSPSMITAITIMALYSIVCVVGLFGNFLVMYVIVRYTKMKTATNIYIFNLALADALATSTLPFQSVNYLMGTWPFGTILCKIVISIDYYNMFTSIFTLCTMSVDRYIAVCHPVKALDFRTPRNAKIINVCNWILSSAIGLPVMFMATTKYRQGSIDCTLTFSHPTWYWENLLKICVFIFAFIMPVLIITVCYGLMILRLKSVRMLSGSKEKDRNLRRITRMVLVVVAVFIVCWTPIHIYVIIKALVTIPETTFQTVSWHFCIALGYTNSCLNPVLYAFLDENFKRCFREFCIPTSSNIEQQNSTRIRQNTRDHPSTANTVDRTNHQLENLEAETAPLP", "assay": "Receptor internalization (PathHunter GPCR internalization, U2OS cells)", "format": "cell-based"}, "C57BL/6J mice [6]": {"test_system": "C57BL/6J mice", "assay": "Hot-plate analgesia assay", "format": "in vivo", "settings": "mouse"}, "mice [7]": {"test_system": "mice", "assay": "Formalin injection assay", "format": "in vivo", "settings": "mouse"}, "μOR [8]": {"target": "T1, μOR", "assay": "cell-based", "format": "cell-based"}, "δOR": {"target": "δOR (Homo sapiens (Human), UniProt P41143)", "assay": "Gi/o Glosensor assay"}, "μOR [9]": {"target": "T1, μOR", "assay": "Calcium release (FLIPR)", "format": "cell-based", "experimental": "Calcium release was measured using a FLIPR^TETRA fluorescence imaging plate reader (Molecular Devices). Calcium release experiments were run in parallel to Gi/o Glosensor experiments with the same HEKT cells transfected with μOR, except cells for FLIPR were plated in poly-lysine coated 384-well black clear bottom cell culture plates. […] Dye was incubated for 1 hour at 37° C. Afterwards, cells were equilibrated to room temperature, and fluorescence in each well was read for the initial 10 seconds to establish a baseline. Afterwards, 10 μL of drug (3×) was added per well and the maximum-fold increase in fluorescence was determined as fold-over-baseline. Drug solutions used for the FLIPR assay were exactly the same as used for Gi/o Glosensor experiments. To activate endogenous Gq-coupled receptors as a positive control for calcium release, TFLLR-NH2 (10 μM, PAR-1 selective agonist) was used."}, "[10]": {"target": "T2, μOR β-arrestin2 recruitment (Homo sapiens (Human), UniProt P35372)", "assay": "β-Arrestin recruitment, PathHunter enzyme complementation assay (DiscoveRx OPRM1 CHO-K1)", "format": "cell-based"}, "[11]": {"test_system": "Oprm1−/− and wild-type C57Bl/6J mice", "assay": "Hot-plate: affective/reflexive subcategorization and μOR knockout mice", "format": "in vivo, mouse"}, "κOR": {"target": "κOR (Homo sapiens (Human), UniProt P41145)", "assay": "Gi/o Glosensor assay (agonist and antagonist mode)"}, "mice [12]": {"test_system": "mice", "assay": "Conditioned place preference", "format": "in vivo", "settings": "mouse", "experimental": "On day 1 (preconditioning day), mice were placed in the central chamber and allowed to explore freely for 30 minutes. Time spent in each compartment was used to estimate baseline chamber preferences and mice showing specific chamber bias more than 70% were not studied further. On days 2-9 (conditioning days) mice were injected with either vehicle or drug and paired with either the white mesh or the black rod chambers. All mice received vehicle on days 2, 4, 6, 8 and drug on days 3, 5, 7, 9. On day 10 (test day), mice were again placed in the central chamber as on day 1 and allowed to explore freely for 30 minutes. Time spent in each chamber was expressed as percentage preference."}, "316 other GPCRs": {"test_system": "316 other GPCRs", "assay": "PRESTO-Tango GPCRome β-arrestin recruitment counter-screen", "format": "cell-based", "settings": "10 μM screen, hits re-tested in full dose-response", "text": "Potential positive receptor hits were defined as those that increase the relative luminescence value by two fold. […] A number of false positive hits were discounted by this approach."}, "hMOR + Gqi5": {"target": "hMOR + Gqi5 (Homo sapiens (Human), UniProt P35372)", "assay": "IP accumulation assay", "format": "cell-based", "settings": "% morphine"}, "hKOR": {"target": "hKOR (Homo sapiens (Human), UniProt P41145)", "sequence (P41145 whole entry)": "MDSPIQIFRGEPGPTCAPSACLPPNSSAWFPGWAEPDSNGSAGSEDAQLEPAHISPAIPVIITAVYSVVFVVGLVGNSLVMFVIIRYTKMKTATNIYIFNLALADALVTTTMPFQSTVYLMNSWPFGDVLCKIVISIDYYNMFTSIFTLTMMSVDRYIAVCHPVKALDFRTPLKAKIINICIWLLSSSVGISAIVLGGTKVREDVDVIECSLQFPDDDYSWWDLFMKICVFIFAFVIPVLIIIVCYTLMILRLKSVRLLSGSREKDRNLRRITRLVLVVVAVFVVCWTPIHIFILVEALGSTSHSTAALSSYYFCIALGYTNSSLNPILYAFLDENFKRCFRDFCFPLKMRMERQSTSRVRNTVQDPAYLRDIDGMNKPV", "assay": "Receptor binding, [3H]diprenorphine", "settings": "hKOR [3H]dyprenorphine Ki"}, "humanDOR": {"target": "humanDOR (Homo sapiens (Human), UniProt P41143)", "sequence (P41143 whole entry)": "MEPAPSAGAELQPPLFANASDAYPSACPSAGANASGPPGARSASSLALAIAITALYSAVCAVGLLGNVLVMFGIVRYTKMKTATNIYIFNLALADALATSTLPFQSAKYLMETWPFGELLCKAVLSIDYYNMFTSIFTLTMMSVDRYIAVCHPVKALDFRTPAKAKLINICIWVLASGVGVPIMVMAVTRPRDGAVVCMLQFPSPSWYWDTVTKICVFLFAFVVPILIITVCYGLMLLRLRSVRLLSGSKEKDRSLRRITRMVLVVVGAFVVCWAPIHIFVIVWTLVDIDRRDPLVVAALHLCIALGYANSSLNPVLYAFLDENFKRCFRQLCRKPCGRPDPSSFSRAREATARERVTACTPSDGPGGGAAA", "assay": "Receptor binding, [3H]diprenorphine"}, "[13]": {"test_system": "μOR Gi/o versus β-arrestin signaling", "assay": "Ligand bias calculation (operational model)"}, "[14]": {"target": "human μOR β-arrestin2 recruitment + GRK2 (Homo sapiens (Human), UniProt P35372)", "assay": "β-Arrestin2 recruitment with GRK2 co-expression (BRET)", "format": "cell-based"}, "[15]": {"target": "T2, μOR β-arrestin2 recruitment", "assay": "β-Arrestin2 recruitment without GRK2 co-expression (BRET)", "format": "cell-based"}, "mice [16]": {"test_system": "mice", "assay": "Catalepsy bar test", "settings": "mouse"}, "μOR [17]": {"target": "T1, μOR", "assay": "biochemical", "format": "binding"}, "μOR [18]": {"target": "T1, μOR", "settings": "no Ki given"}}, "note": "“Also recorded” adds a separate entry of the source.", "data": [{"smiles": "C[C@@H](Cc1ccsc1)NC(=O)NC[C@H](Cc1ccc(O)cc1)N(C)C", "note": "[PZM21, 1-[(S)-2-(Dimethylamino)-3-(4-hydroxyphenyl)propyl]-3-((S)-1-(thiophen-3-yl)propan-2-yl)urea]", "values": [{"measurement": "open field locomotion", "setting": "mice [1]", "result": "does not induce open field locomotion; also recorded: no apparent effect on locomotion versus vehicle"}, {"measurement": "tail-flick analgesia", "setting": "C57BL/6J mice [2]", "result": "no activity in a tail flick assay; also recorded: no analgesic effect"}, {"measurement": "blood brain barrier penetration", "setting": "[3]", "result": "substantial fraction of PZM21 crosses the blood brain barrier"}, {"measurement": "nociceptin receptor agonist activity", "setting": "nociceptin receptor", "result": "no detectable KOR or nociceptin receptor agonist activity"}, {"measurement": "constipation effect / defecation", "setting": "mice [4]", "result": "reduced constipatory effects as compared to morphine; also recorded: substantially less than morphine"}, {"measurement": "μOR internalization", "setting": "μOR [5]", "result": "minimal level of μOR internalization compared to DAMGO and morphine"}, {"measurement": "hot-plate analgesia", "setting": "C57BL/6J mice [6]; s.c.", "result": "dose-dependent analgesia"}, {"measurement": "hot-plate percent maximal possible effect (% MPE)", "setting": "C57BL/6J mice [6]; 15 minutes after the highest dose tested", "result": 87, "unit": "%"}, {"measurement": "formalin injection nociception", "setting": "mice [7]", "result": "active in a formalin injection nociception assay"}, {"measurement": "Gi/o activation / μOR agonist activity", "setting": "μOR [8]", "result": "robust μOR agonist activity"}, {"measurement": "effect on cAMP levels with pertussis toxin", "setting": "μOR [8]", "result": "eliminated by pertussis toxin"}, {"measurement": "Emax", "setting": "δOR; read-out: Gi/o (Glosensor) Emax (%) δOR", "result": 78, "unit": "%"}, {"measurement": "weaker δOR agonist than μOR agonist", "setting": "δOR; selectivity", "result": 500, "unit": "fold"}, {"measurement": "calcium release", "setting": "μOR [9]", "result": "no activity was observed in a calcium release assay"}, {"measurement": "β-arrestin2 recruitment in PathHunter assay", "setting": "[10]", "result": "undetectable β-arrestin2 recruitment; also recorded: minimal recruitment of β-arrestin2; also recorded: no detectable 3-arrestin2 recruitment"}, {"measurement": "analgesia in μOR knockout mice", "setting": "[11]; hot-plate", "result": "genetic knockout of the μOR completely ablates the observed analgesic response"}, {"measurement": "affective versus reflexive component of pain", "setting": "[11]; mouse hot-plate", "result": "only modulates the affective component of pain; also recorded: solely confers analgesia to the affective component of pain"}, {"measurement": "activity at KOR (antagonist mode, words)", "setting": "κOR", "result": "antagonist at KOR"}, {"measurement": "κOR agonist activity", "setting": "κOR", "result": "no detectable KOR or nociceptin receptor agonist activity; also recorded: lack of agonist activity"}, {"measurement": "conditioned place preference", "setting": "mice [12]", "result": "does not induce a conditioned place preference response"}, {"measurement": "agonism against 316 other GPCRs", "setting": "316 other GPCRs", "result": "no potent activity was confirmed with a full dose-response experiment"}, {"measurement": "hMOR + Gqi5 IP accumulation assay efficacy a", "setting": "hMOR + Gqi5", "result": "a: 73%"}, {"measurement": "Ki", "setting": "hKOR", "result": "33 ± 5.6", "unit": "nM"}, {"measurement": "Ki", "setting": "humanDOR", "result": "470 ± 98", "unit": "nM"}, {"measurement": "signaling bias", "setting": "[13]", "result": "undistinguishable from TRV130; also recorded: substantially exceeded that of herkinorin"}, {"measurement": "arrestin recruitment with over-expressed GRK2", "setting": "[14]", "result": "weak arrestin recruitment efficacy compared to DAMGO and even to morphine; also recorded: we observe arrestin recruitment"}, {"measurement": "β-arrestin2 recruitment in the absence of GRK2", "setting": "[15]", "result": "no β-arrestin2 recruitment"}, {"measurement": "cataleptic effect", "setting": "mice [16]", "result": "does not induce cataleptic behavior; also recorded: does not reflect a cataleptic effect"}]}, {"smiles": "CCN1CCC[C@@H](NC(=O)NCCc2ccc(OC(C)C)cc2)C1", "note": "[compound 6]", "values": [{"measurement": "Ki", "setting": "μOR [17]", "result": 10000, "unit": "nM"}]}, {"smiles": "O=C(Cc1cn2ccccc2n1)NCC1(c2ccccc2)CCC1", "note": "[compound 9]", "values": [{"measurement": "μOR binding, given as <50%", "setting": "μOR [18]", "result": "<50", "unit": "%"}]}]}
